Values quoted from earlier work, collected in US7853626B2, “Computational systems for biomedical data” (The Invention Science Fund I, LLC, priority 2006, dated 2010).
Like-named read-outs stand apart in the source and are kept apart here.

Columns and labels:
hyperthyroidism = conditions: groups not comparable at baseline (surgery group younger, in better health)

| Structure (SMILES) | frequency of illness and death compared with surgery (hyperthyroidism) | subset efficacy (members of the identified subpopulation (low methylmalonic acid / homocysteine)) | odds ratio of developing severe toxicity (overall study population) | odds ratio of developing severe toxicity (subpopulation with total homocysteine levels of less than 7.5 μmol/l) |
| --- | --- | --- | --- | --- |
| [131IH] [iodine-131] | much higher frequency of illness and death |  |  |  |
| Nc1nc2[nH]cc(CCc3ccc(C(=O)N[C@@H](CCC(=O)O)C(=O)O)cc3)c2c(=O)[nH]1 [pemetrexed] |  | maintained or improved efficacy | 1 | 0.7 |
